Experimental data reported in patent publication US9469853B2, “MCPIP protection against osteoclast production” (University of Central Florida Research Foundation, Inc., priority 2005, dated 2016).

Tests used:
[1] = system: TRAP and CTSK expression in BMCs; experiment: Expression of OC markers TRAP and CTSK (immunoblot, real-time PCR); format: cell-based, human; conditions: for MCPIP-induced expression of TRAP and CTSK: MCPIP-transfected BMCs, inhibitors 6 h (CeO2 10 μM, apocynin 100 μg/ml, TUDC 100 μM, 3′-MA 50 μM, LY294002 20 μM) or siRNA/antisense 24 h before transfection; for expression of TRAP and CTSK: substance alone, no other inducer, protein and mRNA
Protocol: (§1) BMCs were cultured in α-MEM supplemented with 10% FBS containing 30 ng/ml M-CSF, 100 U/ml penicillin, and 100 μg/ml streptomycin in 5% CO2 at 37° C. OC precursor cells were induced after 3-day culture as Ha et al. (2010). At this point, cells were treated with 50 ng/ml MCP-1, inhibitors, or gene transfection. For inhibitor treatment, CeO2 (10 μM), apocynin (100 μg/ml), TUDC (100 μM), 3′-MA (50 μM), and LY294002 (20 μM) were added 6 h before gene transfection.
(§2) OC precursor cells were transfected with 1 μg GFP or MCPIP-GFP eukaryotic expression plasmids for gene-gain-function assay by using Fugene 6. For gene silencing, chemically synthesized siRNA duplex (100 nM) targeting MCPIP, IRE-1, or Beclin-1 was transfected into OC precursor cells using DharmaFECT (Dharmacon) for 24 h prior to transfection with MCPIP-GFP or GFP plasmid. A scrambled siRNA was used as a negative control. For knockdown expression of p47^PHOX, specific antisense (AS) (5′-[…]-3′ (SEQ ID NO: 5)) and sense (5′-[…]-3′ (SEQ ID NO: 6)) oligonucleotides were designed and synthesized by phosphorothioate modification by Integrated DNA Technologies. The oligonucleotides were transfected into OC precursor cells using Lipofectamine 2000 for 24 h before MCPIP-GFP plasmid transfection.
(§3) Cells were centrifuged after wash with PBS for twice. Cell pellet was resuspended in 1 ml Trizol reagent and the total RNA was extracted with chloroform and isopropanol, purified on Qiagen Mini-Prep column, and treated with DNase. High Capacity cDNA Reverse Transcription kit (Applied Biosystems) was used for cDNA preparation from 1 μg total RNA. qRT-PCR was done in triplicate in an ABI PRISM 7900HT Sequence Detection System with 5% cDNA product, primers (Supplementary Table S1) at 125 nM, and Fast SYBR Green Master Mix (Applied Biosystems). Relative quantitation of PCR products was done by the 2^−ΔΔCT method, CT=cycles to threshold, and ^ΔΔCT=(target gene CT)−(β-actin reference gene CT). Final data were described as fold changes against control cells.
(§4) Sodium dodecyl sulfate-polyacrylamide gel electrophoresis (SDS-PAGE) and western blotting were performed as described elsewhere. Samples (30 μg of protein) were subjected to 12% SDS-PAGE for most of target protein and 18% SDS-PAGE for LC3-II and LC3, transferred onto PVDF membranes (Millipore), and assayed for MCPIP, p47^PHOX, TRAP, CTSK, GRP78, IRE-1, Beclin-1, LC3-II, and β-actin or Fas (loading control) protein expression by chemiluminescence detection (Pierce ECL kit) according to the manufacturer's instructions. The specific protein bands were quantified by densitometric analysis with GS-690 Image Densitometer (Bio-Rad).

GRP78 and IRE-1 = experiment: ER stress markers GRP78 and IRE-1 expression; format: cell-based, human; conditions: for MCPIP-induced expression of GRP78: autophagy inhibition, MCPIP-transfected BMCs; for MCPIP-induced expression of GRP78 and IRE-1: pretreatment prior to MCPIP transfection, immunoblot; for expression of ER stress markers GRP78 and IRE-1: substance alone
Protocol: as §1, §2, §3, §4

Beclin-1, LC3, Atg7 = experiment: Autophagy markers (Beclin-1, LC3 lipidation, Atg7) expression; format: cell-based, human; conditions: MCPIP-transfected BMCs
Protocol: as §1, §2, §3, §4

MCPIP = MCPIP expression (immunoblot, real-time PCR); format: cell-based, human
Protocol: as §1
(§5) OC precursor cells were transfected with 1 μg GFP or MCPIP-GFP eukaryotic expression plasmids for gene-gain-function assay by using Fugene 6. For gene silencing, chemically synthesized siRNA duplex (100 nM) targeting MCPIP, IRE-1, or Beclin-1 was transfected into OC precursor cells using DharmaFECT (Dharmacon) for 24 h prior to transfection with MCPIP-GFP or GFP plasmid. A scrambled siRNA was used as a negative control. […]
(§6) Cells were centrifuged after wash with PBS for twice. […] Relative quantitation of PCR products was done by the 2^−ΔΔCT method, CT=cycles to threshold, and ^ΔΔCT=(target gene CT)−(β-actin reference gene CT). […]
(§7) Sodium dodecyl sulfate-polyacrylamide gel electrophoresis (SDS-PAGE) and western blotting were performed as described elsewhere. […] The specific protein bands were quantified by densitometric analysis with GS-690 Image Densitometer (Bio-Rad).

ROS production in BMCs = experiment: ROS production (DHR123 oxidation); format: cell-based, human
Protocol: as §1
as §2, with “The oligonucleotides were transfected into OC precursor cells using Lipofectamine 2000 for 24 h before MCPIP-GFP plasmid transfection.” left out
Oxidant production in OC precursor cells was assessed by measuring the oxidation of intracellular DHR123 (Molecular Probes) as described previously (Younce et al., 2010). ROS production was expressed as folds compared with control cells expressing GFP alone.

p47PHOX = p47PHOX expression and membrane translocation (immunoblot); format: cell-based, human
Protocol: as §1
OC precursor cells were transfected with 1 μg GFP or MCPIP-GFP eukaryotic expression plasmids for gene-gain-function assay by using Fugene 6. […]
OC precursor cells were harvested, sonicated on ice in a buffer containing 100 mM KCl, 3 mM NaCl, 3.5 mM MgCl2, 10 mM HEPES, 1 mM EGTA, 10 μg/ml pepstatin, 10 μg/ml leupeptin, and 0.5 mM PMSF; lysates were centrifuged at 600 g for 10 min at 4° C. to remove nuclei and unbroken cells. […] Membranes were washed in the same buffer, quantified (Lemarie), and resuspended in Laemmli sample buffer, before western blot analysis.
as §7

[2] = system: human bone marrow mononuclear cells (BMCs); experiment: TRAP staining, TRAP-positive OC precursor cell formation; format: cell-based; conditions: substance alone, 50 ng/ml MCP-1, human BMCs
Protocol: as §1, §5
Three days after MCP-1 treatment or 4 days after MCPIP transfection, cells were fixed for histological staining for TRAP as described previously (Kim et al., 2006a). […] On each coverslip, totally at least 500 cells were examined and the TRAP-positive cells were counted in 3-5 fields (20× objective), and the percentage of TRAP-positive cells was calculated.

[3] = system: αV integrin, β3 integrin, and MMP9; experiment: Expression of OC functional markers αV integrin, β3 integrin, MMP9; format: cell-based, human; conditions: substance alone
Protocol: as §1, §5, §6, §7

[4] = pretreatment prior to MCPIP transfection

Cn1cnc(N)c2ncnc1-2 [3′-MA, 3′-methyladenine]
MCPIP-induced expression of TRAP and CTSK [1]: significantly inhibited
MCPIP-induced expression of GRP78 (GRP78 and IRE-1): no effect
MCPIP-induced expression of Beclin-1 (Beclin-1, LC3, Atg7): significantly inhibited
lipidation of LC-3 (Beclin-1, LC3, Atg7; immunoblot): inhibited

O=c1cc(N2CCOCC2)oc2c(-c3ccccc3)cccc12 [LY294002]
MCPIP-induced expression of GRP78 (GRP78 and IRE-1): no effect

C[C@H](CCC(=O)NCCS(=O)(=O)O)[C@H]1CC[C@H]2[C@@H]3[C@@H](O)C[C@@H]4C[C@H](O)CC[C@]4(C)[C@H]3CC[C@]12C [TUDC, tauroursodeoxycholate]
MCPIP-induced expression of TRAP and CTSK [1]: significantly inhibited
MCPIP-induced expression of GRP78 and IRE-1 (GRP78 and IRE-1): inhibits
MCPIP-induced expression of Beclin-1 (Beclin-1, LC3, Atg7): inhibited significantly
expression of MCPIP after MCPIP transfection (MCPIP; MCPIP-transfected BMCs): did not affect

COc1cc(C(C)=O)ccc1O [apocynin]
MCPIP-induced expression of TRAP and CTSK [1]: suppressed
MCPIP-induced ROS production (ROS production in BMCs; [4]): suppressed
MCPIP-induced expression and membrane translocation of p47PHOX (p47PHOX; [4]): inhibited
MCPIP-induced expression of GRP78 and IRE-1 (GRP78 and IRE-1): attenuated
MCPIP-induced expression of Beclin-1 (Beclin-1, LC3, Atg7): inhibited significantly

C/C=C(/C)C(=O)O[C@H]1C(C)=C2[C@H]([C@@H]1OC(=O)CCCCCCC)[C@@](C)(OC(C)=O)C[C@H](OC(=O)CCC)[C@@]1(O)[C@H]2OC(=O)[C@@]1(C)O [thapsigargin]
expression of TRAP and CTSK [1]: induced
expression of ER stress markers GRP78 and IRE-1 (GRP78 and IRE-1): induced

MCP-1: human MCP-1, a CC chemokine, purchased from Invitrogen
TRAP-positive OC precursor cell formation [2]: induced
expression of TRAP and CTSK [1]: induced
ROS generation (ROS production in BMCs; substance alone, DHR123 staining): remarkably increased
expression of p47PHOX and its translocation from the cytoplasm into the membrane (p47PHOX; substance alone): increased
expression of ER stress markers GRP78 and IRE-1 (GRP78 and IRE-1): induced
expression of αV integrin, β3 integrin, and MMP9 [3]: did not affect
MCPIP protein and mRNA levels (MCPIP; substance alone, 50 ng/ml MCP-1): induced up-regulation

tunicamycin
expression of TRAP and CTSK [1]: induced
expression of ER stress markers GRP78 and IRE-1 (GRP78 and IRE-1): induced
